Source: patent US7091199B1, “Thienoisoxazole phenoxy unsubstituted ethyl and propyl derivatives useful as d4 antagonists” (Aventis Pharmaceuticals Inc., priority 1999, dated 2006)
Counter-ions that a name gives are not always drawn.

Tests used:
D4.2 variant = conditions: read-out: EC50 of dopamine; cited from earlier work
[1] = target: human D4 receptor with seven repeat units (D4.7 variant); conditions: read-out: EC50 of dopamine; cited from earlier work
[2] = tested on: CD-1 or C57 male mice (MK-801 induced stereotypy); assay: MK-801 Stereotypy in Mice; assay type: in vivo; conditions: Mus musculus; for inhibition in vivo at 20 mg/kg: po, read-out: Antag. of MK 801 Stereotypy % Inhib. @ 20 mg/kg
Description: Mk-801 dose-dependently induces characteristic stereotypy marked by locomotion and falling behavior. This MK-801 induced behavior can be antagonized by novel neuroleptic agents. This assay can also assess time course effects following drug administration.
CD-1 or C57 male mice are individually placed in activity boxes (8 mice/drug) and allowed to acclimate for 60 minutes. The mice are then administered test compounds either i.p., s.c., or p.o., at 15, 30, or 60 minutes prior to MK-801 (0.2 mg/kg) administration. Mice are observed for the presence of locomotion and falling behaviors 15 minutes following MK-801. For the duration of action studies the test compounds are administered i.p., s.c., or p.o., at 30, 60, 120, 180, and 240 minutes prior to MK-801 administration.

[3] = target: T1, human D4 receptor (D4.2 sub-type) (Homo sapiens, UniProt P21917, DEL271-302); assay: D4 receptor binding assay (3H-spiperone displacement); conditions: for Ki: 3H-spiperone 0.25 nM, HEK cell membranes, human D4.2, read-out: D4 RBA Ki
T1 sequence (P21917 with tags, fused parts or gaps DEL271-302): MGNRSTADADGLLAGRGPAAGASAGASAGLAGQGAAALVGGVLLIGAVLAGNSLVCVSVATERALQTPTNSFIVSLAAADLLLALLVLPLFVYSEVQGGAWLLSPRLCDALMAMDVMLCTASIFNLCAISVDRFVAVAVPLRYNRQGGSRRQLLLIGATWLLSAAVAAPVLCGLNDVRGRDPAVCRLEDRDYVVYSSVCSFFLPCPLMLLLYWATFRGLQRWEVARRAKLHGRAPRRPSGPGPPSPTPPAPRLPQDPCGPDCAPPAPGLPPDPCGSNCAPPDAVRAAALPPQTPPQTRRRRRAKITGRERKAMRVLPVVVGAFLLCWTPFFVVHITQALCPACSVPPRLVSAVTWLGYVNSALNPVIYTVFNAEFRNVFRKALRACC
Description: D4 receptor-binding affinities of the compounds were evaluated according to their ability to reduce binding of ^3H-spiperone as compared to the reference compound clozapine. The potency of the test compound to reduce ^3H-spiperone binding directly correlated to its binding affinity for the receptor.
[…] (human embryonic kidney) cells stably transfected with human D4 receptor (D4.2 sub-type) were grown in NUNC cell factories for 5 days (75% confluency) without a media change and removed with versene (approximately 19 mg of cells per cell factory tray). The cells were then centrifuged in a Sorval centrifuge for 10 min, 5000 rpm (GS3 rotor) and the pellets quickly frozen in liquid nitrogen and stored at −80° C. until used in binding assay. When used in the assay, cells were thawed on ice for 20 min and then 10 mL of incubation buffer (50 mM Tris, 1 mM EDTA, 4 mM MgCl2, 5 mM KCl, 1.5 mM CaCl2, 120 mM NaCl, pH 7.4) was added. The cells were then vortexed to resuspend pellet and homogenized with a Kinematica, CH-6010 Kriens-LU, homogenizer for 15 seconds at setting 7. Concentration of receptor protein was determined using the Pierce BCA assay.
The incubation was started by the addition of 100 μl (50 μg protein) membrane homogenate to a solution of 300 μl incubation buffer and 100 μl (0.25 nM final conc.) ^3H-spiperone (90 Ci/mmol, Amersham, diluted in borosilicate glass vial) in 96-well polypropylene plates (1 mL per well). The plates were vortexed and incubated at room temperature for 90 minutes. The binding reaction was stopped by filtering using a Packard Harvester. The samples were filtered under vacuum over glass fibre filter plates (Whatman GF/B) presoaked for 2 hours in 0.3% polyethylenimine (PEI) in 50 mM Tris buffer (pH 7.4). The filters were then washed 6 times with 7 mL ice cold 50 mM Tris buffer (pH 7.4). The filter plates were dried overnight and 35 μl of Microscint-O (Packard) was added. The plates were sealed and counted in the Packard Top Count (3 minutes per well).
The incubation was started by the addition of 100 μl (50 μg protein) membrane homogenate to a solution of 200 μl incubation buffer, 100 μl ^3H-spiperone (90 Ci/mmol, Amersham, diluted in borosilicate glass vial to 0.25 nM final conc.) and 100 μl (30 μM final conc.) of fresh dopamine (Research Biochemicals Inc., light protected and dissolved in incubation buffer) in 96-well polypropylene plates (1 mL per well). The plates were vortexed and incubated at room temperature for 90 minutes at which time the binding reaction was stopped by filtering. The filters were washed and counted using the same procedure as in the total binding assay described above to give the non-specific binding value (NSB).
The incubation was started by the addition, in 96-well polypropylene plates (1 mL per well), of 100 μl (50 μg protein) membrane homogenate to a solution of 200 μl incubation buffer, 100 μl (0.25 nM final conc.) ^3H-spiperone (90 Ci/mmol, Amersham, diluted in borosilicate glass vial) and 100 μl of test compound that was prepared from 1 mM stock dissolved in DMSO and stored at −20° C. in polypropylene cryogenic storage vials until dilution in incubation buffer in 96-well polypropylene plates. The plates were vortexed and incubated at room temperature for 90 minutes at which time the binding reaction was stopped by filtering. The filters were washed and counted using the same procedure as in the total binding assay described above to give the displacement binding value (BD).
The test compounds were initially assayed at 1 and 0.1 μM and then at a range of concentrations chosen such that the middle dose would cause about 50% inhibition of ^3H-spiperone binding. Specific binding in the absence of test compound (B0) was the difference of total binding (BT) minus non-specific binding (NSB) and similarly specific binding (in the presence of test compound) (B) was the difference of displacement binding (BD) minus non-specific binding (NSB). […]

## NCCc1ccc(O)c(O)c1 [dopamine]
D4.2 variant
  EC50: 15 nM
[1]
  EC50: 40 nM

## Cl.c1ccc(CNCCCOc2cccc(-c3noc4ccsc34)c2)cc1 [Compound 1, benzyl-[3-(3-theino[2,3-d]isoxazol-3-yl-phenoxy)-propyl]-amine hydrochloride]
other
  melting point: 195 to 197 °C
[2]; PO, MK-801 stereotypy, read-out: In Vivo ED50
  ED50: 14.6 mg/kg
[3]
  Ki: 12 nM

## Clc1ccc(CNCCOc2cccc(-c3noc4ccsc34)c2)cc1 [Compound 18, (4-chloro-benzyl)-[2-(3-thieno[2,3-d]isoxazol-3-yl-phenoxy)-ethyl]-amine]
[2]
  inhibition in vivo at 20 mg/kg: 37.5%
[3]
  Ki: 34 nM

## c1ccc(CNCCOc2cccc(-c3noc4ccsc34)c2)cc1 [Compound 31, benzyl-[2-(3-thieno[2,3-d]isoxazol-3-yl-phenoxy)-ethyl]-amine hydrochloride]
[2]
  inhibition in vivo at 20 mg/kg: 37.5%
[3]; @ 1 μM test compound, 3H-spiperone binding, read-out: D4 RBA % Inhibition (@ 1 μM)
  inhibition at 1 µM: 100%
